These are literature values, as cited in patent publication US20030088889A1, “Enhancing biological activity of plants” (priority 2002, published 2003).

In one series the target is T1, estrogen receptor (Homo sapiens, UniProt P03372).
T1 sequence (P03372 1-595): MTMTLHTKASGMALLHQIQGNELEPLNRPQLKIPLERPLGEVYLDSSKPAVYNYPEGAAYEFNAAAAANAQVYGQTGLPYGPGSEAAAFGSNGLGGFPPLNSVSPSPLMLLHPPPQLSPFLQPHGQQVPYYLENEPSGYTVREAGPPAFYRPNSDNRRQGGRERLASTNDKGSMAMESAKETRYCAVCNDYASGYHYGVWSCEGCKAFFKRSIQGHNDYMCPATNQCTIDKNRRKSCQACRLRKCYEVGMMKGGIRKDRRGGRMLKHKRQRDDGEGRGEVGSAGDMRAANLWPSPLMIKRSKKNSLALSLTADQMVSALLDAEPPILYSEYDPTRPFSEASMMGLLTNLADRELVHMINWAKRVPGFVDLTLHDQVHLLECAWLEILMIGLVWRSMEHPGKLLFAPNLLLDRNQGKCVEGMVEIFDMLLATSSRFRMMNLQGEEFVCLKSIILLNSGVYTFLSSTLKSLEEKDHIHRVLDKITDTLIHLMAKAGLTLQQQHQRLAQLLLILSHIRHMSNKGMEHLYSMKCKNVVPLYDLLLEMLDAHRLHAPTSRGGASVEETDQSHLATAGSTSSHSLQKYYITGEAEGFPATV

Series [1] relates to neuronal reuptake of monoamines and amino acids.

For the compound `O=c1cc(-c2ccc(O)c(-c3c(O)cc(O)c4c(=O)cc(-c5ccc(O)cc5)oc34)c2)oc2cc(O)cc(O)c12` [biapigenin], on estrogen receptor, the “affinity to the estrogen receptor” value is listed as “weak affinity”.

With hyperforin, in series [1], the “inhibition of neuronal reuptake of monoamines and amino acids” value is “potently inhibit”.
